Target: T1, acetylcholine muscarinic M1 receptor (Homo sapiens, UniProt P11229)
T1 construct: expressed in transfected cells; host or cells: CHOnfat (CHO cells; also called CHOK1/hM1)
T1 sequence (P11229 1-460): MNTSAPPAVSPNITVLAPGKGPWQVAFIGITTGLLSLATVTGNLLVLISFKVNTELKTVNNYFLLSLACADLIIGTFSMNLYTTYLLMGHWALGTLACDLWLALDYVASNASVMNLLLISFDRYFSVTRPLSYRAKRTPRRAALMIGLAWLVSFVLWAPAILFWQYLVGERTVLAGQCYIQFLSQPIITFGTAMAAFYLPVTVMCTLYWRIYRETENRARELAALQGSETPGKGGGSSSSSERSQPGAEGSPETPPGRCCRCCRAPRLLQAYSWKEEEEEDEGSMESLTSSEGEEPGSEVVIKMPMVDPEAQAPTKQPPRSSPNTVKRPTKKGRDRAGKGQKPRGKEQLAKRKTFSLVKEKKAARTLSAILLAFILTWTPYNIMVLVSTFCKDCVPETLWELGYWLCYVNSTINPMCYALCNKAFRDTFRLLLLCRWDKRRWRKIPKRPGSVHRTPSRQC
Experiment: Muscarinic M1 FLIPR intracellular calcium assay for positive allosteric modulators
Type: cell-based
Settings: IP = inflection point calculated from FLIPR values; CHOnfat/hM1 cells; 4 min preincubation, then EC20 acetylcholine (3 nM final); read-out: IP Value
Description: The assay studies the effect of one or several concentrations of test compounds on basal or acetylcholine-stimulated Ca^2+ levels using FLIPR.
Compounds are prepared and subjected to a preincubation period of 4 min. Thereafter, a single EC20 concentration of acetylcholine is added to each well (3 nM final). The intracellular Ca^2+ level of each sample is measured and compared to an acetylcholine control to determine any modulatory activity.
Cells: CHOnfat/hM1, hM2, hM3 or hM4 cells are plated 24 hr before the assay at a density of 18,000 cells/well (100 μL) in a 384 well plate. CHOnfat/hM1 and CHOnfat/hM3 Growth Medium: 90% DMEM (Hi Glucose); 10% HI FBS; 2 mM L-glutamine; 0.1 mM NEAA; Pen-Strep; and 1 mg/ml Geneticin, are added. For M2Gqi5CHOnfat and M4Gqi5CHOnfat cells, an additional 600 ug/ml hygromycin is added.
Equipment: 384 well plate, 120 μL addition plate; 96-well Whatman 2 ml Uniplate Incubator, 37° C., 5% CO2; Skatron EMBLA-384 Plate Washer; Multimek Pipetting System; Genesis Freedom 200 System; Mosquito System; Temo Nanolitre Pipetting System; and FLIPR^384 Fluorometric Imaging Plate Reader System are used.
Buffers. Assay Buffer: Hanks Balanced Salt Solution, with 20 mM Hepes, 2.5 mM Probenecid (Sigma P-8761) first dissolved in 1 N NaOH, 1% Bovine Serum Albumin (Sigma A-9647). Dye Loading Buffer: Assay Buffer plus 1% Fetal Bovine Serum and Fluo-4AM/Pluronic Acid Mixture. 2 mM Fluo-4AM ester stock in DMSO (Molecular Probes F-14202) Concentration of 2 μM in buffer for a final concentration of 1 μM in Assay. 20% Pluronic Acid Solution stock, with concentration of 0.04% in Buffer, 0.02% in Assay.
65 μL of 2 mM Fluo-4AM are mixed with 130 μL of 20% Pluronic Acid. The resulting solution and 650 μL FBS is added to the assay buffer for a total volume of 65 mL. Positive Controls: 4-Br-A23187: 10 mM in DMSO; final concentration 10 μM. Acetylcholine: 10 mM in water, working stock at both 20 μM and 30 μM in assay buffer, final concentration of 10 μM. This is used to check the maximum stimulation of the CHOK1/hM1 cells. 20 μM (2×) acetylcholine is added in the preincubation part of the assay, and the 30 μM (3×) stock is added in the second part. (EC20)Acetylcholine: 10 mM in water, working stock of 9 nM (3×), and final concentration in assay is 3 nM. This is used after the preincubation with test compounds. Addition of the EC20 Acetylcholine to each well with a test compound will ascertain any modulator activity. 24 wells contain 3 nM Acetylcholine alone as a control.
Determining Activity of Putative Compounds:
Screening Plate Compounds are titrated in 96-well plates (columns 2-11), 100% DMSO, started at a concentration of 15 mM (150× stock concentration), and 3-fold serial dilutions using Genesis Freedom200 System. Four 96-well plates are combined into a 384-well plate using Mosquito Nanolitre Pipetting System by transferring 1 μl of serial diluted compounds to each well, and 1 mM acetylcholine (100× stock concentration) were added as a control. Using Temo, 49 μl assay buffer is added to each well of the 384-well plate right before assay.
In a 96-well Whatman 2 ml Uniplate, 9 nM Acetylcholine (3×) is pipetted into wells corresponding to the screening compounds, and into control wells. The 30 μM acetylcholine control (3×) is added into control wells, and the 3× agonist plate is transferred into a 384 well plate.
Cells are washed three times with 100 μL of buffer, leaving 30 μL of buffer in each well. Using Multimek, 30 μL of Dye Loading Buffer is added into each well and incubated at 37° C., 5% CO2 for up to one hr.
After 60 min, the cells are washed three times with 100 μL of buffer, leaving 30 μL of buffer in each well. The cell plate, screening plate, and agonist addition plates are placed on the platform in the FLIPR and the door closed. A signal test to check background fluorescence and basal fluorescence signal is performed. Laser intensity is adjusted if necessary. […]

SMILES	EC50
COc1cc(Cc2cc(C(=O)N[C@H]3CCOC[C@@H]3O)nc3c(F)cccc23)cc[n+]1[O-] [Example 23, 8-Fluoro-N-[(3R,4S)-3-hydroxytetrahydro-2H-pyran-4-yl]-4-[(2-methoxy-1-oxidopyridin-4-yl)methyl]quinoline-2-carboxamide]	411 nM
COc1ccc(Cc2cc(C(=O)N[C@H]3CCOC[C@@H]3O)nc3c(F)ccc(F)c23)cn1 [Example 24, 5,8-Difluoro-N-[(3R,4S)-3-hydroxytetrahydro-2H-pyran-4-yl]-4-[(6-methoxypyridin-3-yl)methyl]quinoline-2-carboxamide]	33 nM
